The numbers were not newly measured in patent US20090048261A1, “Pharmaceutical Composition for Treatment of Ocular Hypertension” (priority 2007, published 2009), which cites them from elsewhere.

Data set [1] deals with alpha-2-andrenergic receptors. The conditions noted are these: compared with clonidine.
The test system of data set [2] is patients with glaucoma or ocular hypertension. The conditions noted are these: for difference in effectiveness of brimonidine and dorzolamide: jointly used with topical beta-blockers, Cantor.
For data set [3], the system named is carbonic anhydrase isoenzyme. Particulars: after 4 weeks of bilateral treatment.
Data set [4] deals with primary open-angle glaucoma patients. The conditions noted are these: 30 patients.
The conditions of data set [5]: topical.

Where “and” joins values, the source holds several entries; their conditions need not be identical. Equal entries are not always repeated. Where two headings read alike, the source gives them in different places.

On to `Brc1c(NC2=NCCN2)ccc2nccnc12` [brimonidine], for which the “selectivity to alpha-2 adrenergic receptors” value in data set [1] is “higher selectivity”. The “effectiveness in reducing ocular hypertension, brimonidine at 0.2% versus dorzolamide at 2%” value in data set [2] (joint therapy with topical beta-blockers, adults with ocular hypertension, Simmons) was “more effective”. Further, in data set [2] (joint treatment to topical beta-blocker therapy), the “additive effect of intraocular pressure reduction” value is 5 mmhg and 3.7 mmhg. The “difference in effectiveness of brimonidine and dorzolamide” value in data set [2] is “no statistically significant differences”.
As to `CCN[C@H]1C[C@H](C)S(=O)(=O)c2sc(S(N)(=O)=O)cc21` [dorzolamide], the “binding to plasma proteins” value in the data set on plasma proteins is on record as roughly 33%. In addition, the “decrease of carbonic anhydrase isoenzyme's activity, of its basic activity” value in data set [3] is 21%. Besides, the “additional reduction of intraocular pressure when added to topical brimonidine” value in data set [2] (dorzolamide at 2%, patients with intraocular pressure of at least 22 mm Hg, 30 days, Ermis) is “up to 29%”. In addition, the “reduction of intraocular pressure when added to timolol” value in data set [2] (human, in vivo) is listed as 20%. Moreover, in data set [2], the “difference in effectiveness of brimonidine and dorzolamide” value is given as “no statistically significant differences”.
On to `CC(C)OC(=O)CCC/C=C\C[C@@H]1[C@@H](CC[C@@H](O)CCc2ccccc2)[C@H](O)C[C@@H]1O` [latanoprost], for which, in data set [4], the increase in pulsating ocular blood flow was 2.15 µL/s and the “reduction of intraocular pressure” value is given as 3.75 mmHg.
For `CC(C)(C)NC[C@H](O)COc1nsnc1N1CCOCC1` [timolol], the “time over which ocular antihypertensive effect is maintained” value (chronic use) is reported as “up to three years”. Moreover, where the note is “one drop of timolol at 0.5%”, the duration of effect result is listed as “over 24 hours”, the “start of the drug's action” value is recorded as “after an hour” and the “time of peak effect” value is 2 h. In addition, the “start of the drug's action” value (one drop, topical ocular instillation) is recorded as “within a single hour”. Further, for the setting “single dose”, the “duration of significant reduction of intraocular pressure” value is on record as “up to 24 hours”. For the same molecule, in data set [5], the “effect over pupil size or accommodation” value is listed as “little or no effect”; the “systemic effects after absorption” value is “decrease in heart rate, cardiac arrhythmia and bronchial spasm”.
On to Brimonidine tartrate, for which, under “topical administration of ophthalmic solution”, the “time of peak ocular antihypertensive effects” value is 2 to 3 h.
